Assay results as given in publication PMC7064328 (Environmental Health Perspectives, 2020).

Tests used:
Type in all cases: in vivo, mouse (CD-1)
[1] = Litter parameters at necropsy (implantation sites, resorptions, viable and nonviable embryos); conditions: female, CD-1, mouse, in vivo, oral, percent of implantation sites
Procedure: (§1) On the day of necropsy, dams received daily oral gavage between 0700 and 0800 hours and were weighed and then euthanized humanely by swift decapitation, and serum was collected. In Block 1, necropsies were completed from 0800 to 1600 hours, and in Block 2, necropsies were completed from 0800 to 1200 hours. Serum from dams euthanized in Block 1 was snap frozen for internal dosimetry analyses. Serum and urine from Block 2 dams were reserved for clinical chemistry analyses. In both blocks, the uterus was removed, and total implantation sites were counted based on gross observation of an implantation nodule along the uterine horn. Viable embryos, nonviable embryos, and sites of resorption were counted based on gross observation. Embryos were considered viable if they were properly formed, were not pale in color, and were of similar size to neighboring embryos. Embryos that were poorly formed and pale in color (without heartbeat) were considered nonviable. Sites of resorption were defined as a dark red–appearing clot-like nodule apparent on gross observation.

Pregnant CD-1 mice = test: as above; conditions: for % nonviable / % resorbed: percent of implantation sites
Procedure: as §1

maternal liver = test: Transmission electron microscopy of dam liver; conditions: E17.5
From the text: Block 2 dam liver portions stored in McDowell and Trump’s fixative ([McDowell and Trump 1976]) were processed using a Leica EM TP processor. Briefly, samples were rinsed with buffer, postfixed in 1% osmium tetroxide in 0.1-M phosphate buffer, rinsed in distilled water, dehydrated, and embedded in Ply/Bed® 812 (Polysciences, Inc.) epoxide resin. Blocks were trimmed, and semithin sections ( ∼0.5μm ) were stained with 1% toluidine blue (Poly-scientific R&D Corp.) O in 1% sodium borate to ascertain areas of interest. Ultrathin sections ( […] ) were cut from areas of interest and placed on 200-mesh copper grids and stained with uranyl acetate and lead citrate, and digital images were captured using an Orius® SC1000 side mount camera (Gatan) attached to a Techani T12 transmission electron microscope (TEM) (FEI Company). In general, peroxisomes were smaller than mitochondria and round with a dark, electron-dense, granular matrix and surrounded by a single membrane. […] Samples were analyzed by R.D.K., Ph.D.

With `N.O=C(O)C(F)(OC(F)(F)C(F)(F)C(F)(F)F)C(F)(F)F` (stereo not drawn) [GenX, ammonium 2,3,3,3-tetrafluoro-2-(heptafluoropropoxy)propanoate] the viability ([1]; 2 mg/kg/d, E11.5) was 95 ± 6.2%, the viability ([1]; 2 mg/kg/d, E17.5) was 98.1 ± 4.6% and the viability ([1]; 10 mg/kg/d, E11.5) was 92.4 ± 9.3%. It also gave a viability ([1]; 10 mg/kg/d, E17.5) of 96.5 ± 5.3%, a No. dead embryos (Pregnant CD-1 mice; E11.5, 2 mg/kg/d) of 0.0 ± 0.0 and a No. implantation sites (Pregnant CD-1 mice; E11.5, 2 mg/kg/d) of 14.7 ± 2.7. For the same molecule, the No. resorptions (Pregnant CD-1 mice; E11.5, 2 mg/kg/d) was 0.7 ± 0.8, the No. viable embryos (Pregnant CD-1 mice; E11.5, 2 mg/kg/d) was 14.0 ± 2.9 and the No. dead embryos (Pregnant CD-1 mice; E11.5, 10 mg/kg/d) was 0.1 ± 0.3. It also gave a No. implantation sites (Pregnant CD-1 mice; E11.5, 10 mg/kg/d) of 14.8 ± 3.7, a No. resorptions (Pregnant CD-1 mice; E11.5, 10 mg/kg/d) of 0.9 ± 1.3 and a No. viable embryos (Pregnant CD-1 mice; E11.5, 10 mg/kg/d) of 13.8 ± 3.7. It also gave a No. dead embryos (Pregnant CD-1 mice; E17.5, 2 mg/kg/d) of 0.1 ± 0.3, a No. implantation sites (Pregnant CD-1 mice; E17.5, 2 mg/kg/d) of 13.8 ± 2.0 and a No. resorptions (Pregnant CD-1 mice; E17.5, 2 mg/kg/d) of 0.2 ± 0.6. For the same molecule, the No. viable embryos (Pregnant CD-1 mice; E17.5, 2 mg/kg/d) was 13.5 ± 2.1, the No. dead embryos (Pregnant CD-1 mice; E17.5, 10 mg/kg/d) was 0.0 ± 0.0 and the No. implantation sites (Pregnant CD-1 mice; E17.5, 10 mg/kg/d) was 12.5 ± 3.1. For the same molecule, the No. resorptions (Pregnant CD-1 mice; E17.5, 10 mg/kg/d) was 0.5 ± 0.7, the No. viable embryos (Pregnant CD-1 mice; E17.5, 10 mg/kg/d) was 12.0 ± 3.0 and the “% nonviable” value (Pregnant CD-1 mice; E11.5, 2 mg/kg/d) was 0.0 ± 0.0%. For the same molecule, the “% resorbed” value (Pregnant CD-1 mice; E11.5, 2 mg/kg/d) was 5.0 ± 6.2%, the “% nonviable” value (Pregnant CD-1 mice; E11.5, 10 mg/kg/d) was 2.1 ± 7.2% and the “% resorbed” value (Pregnant CD-1 mice; E11.5, 10 mg/kg/d) was 5.6 ± 7.7%. The “% nonviable” value (Pregnant CD-1 mice; E17.5, 2 mg/kg/d) was 0.7 ± 2.4%, the “% resorbed” value (Pregnant CD-1 mice; E17.5, 2 mg/kg/d) was 1.2 ± 4.1% and the “% nonviable” value (Pregnant CD-1 mice; E17.5, 10 mg/kg/d) was 0.0 ± 0.0%. The “% resorbed” value (Pregnant CD-1 mice; E17.5, 10 mg/kg/d) was 3.5 ± 5.3%, the “Liver ultrastructure (TEM)” value (maternal liver; 2 mg/kg/d) was “abnormal ultrastructure” and the “Liver ultrastructure (TEM)” value (maternal liver; 10 mg/kg/d) was “abnormal ultrastructure”.

`O=C(O)C(F)(F)C(F)(F)C(F)(F)C(F)(F)C(F)(F)C(F)(F)C(F)(F)F` [PFOA, Perfluorooctanoic acid] gave a viability ([1]; 1 mg/kg/d, E11.5) of 96 ± 3.3%, a viability ([1]; 1 mg/kg/d, E17.5) of 96.8 ± 4.1% and a viability ([1]; 5 mg/kg/d, E11.5) of 95.9 ± 5.9%. It also gave a viability ([1]; 5 mg/kg/d, E17.5) of 97.7 ± 3.4%, a No. dead embryos (Pregnant CD-1 mice; E11.5, 1 mg/kg/d) of 0.0 ± 0.0 and a No. implantation sites (Pregnant CD-1 mice; E11.5, 1 mg/kg/d) of 15.5 ± 2.7. The No. resorptions (Pregnant CD-1 mice; E11.5, 1 mg/kg/d) was 0.6 ± 0.5, the No. viable embryos (Pregnant CD-1 mice; E11.5, 1 mg/kg/d) was 14.8 ± 2.5 and the No. dead embryos (Pregnant CD-1 mice; E11.5, 5 mg/kg/d) was 0.1 ± 0.3. The No. implantation sites (Pregnant CD-1 mice; E11.5, 5 mg/kg/d) was 14.5 ± 2.3, the No. resorptions (Pregnant CD-1 mice; E11.5, 5 mg/kg/d) was 0.5 ± 0.9 and the No. viable embryos (Pregnant CD-1 mice; E11.5, 5 mg/kg/d) was 13.9 ± 2.2. For the same molecule, the No. dead embryos (Pregnant CD-1 mice; E17.5, 1 mg/kg/d) was 0.1 ± 0.3, the No. implantation sites (Pregnant CD-1 mice; E17.5, 1 mg/kg/d) was 13.5 ± 2.0 and the No. resorptions (Pregnant CD-1 mice; E17.5, 1 mg/kg/d) was 0.3 ± 0.5. It also gave a No. viable embryos (Pregnant CD-1 mice; E17.5, 1 mg/kg/d) of 13.1 ± 2.1, a No. dead embryos (Pregnant CD-1 mice; E17.5, 5 mg/kg/d) of 0.0 ± 0.0 and a No. implantation sites (Pregnant CD-1 mice; E17.5, 5 mg/kg/d) of 13.7 ± 2.1. For the same molecule, the No. resorptions (Pregnant CD-1 mice; E17.5, 5 mg/kg/d) was 0.3 ± 0.5, the No. viable embryos (Pregnant CD-1 mice; E17.5, 5 mg/kg/d) was 13.3 ± 1.9 and the “% nonviable” value (Pregnant CD-1 mice; E11.5, 1 mg/kg/d) was 0.0 ± 0.0%. For the same molecule, the “% resorbed” value (Pregnant CD-1 mice; E11.5, 1 mg/kg/d) was 4.0 ± 3.3%, the “% nonviable” value (Pregnant CD-1 mice; E11.5, 5 mg/kg/d) was 0.6 ± 1.9% and the “% resorbed” value (Pregnant CD-1 mice; E11.5, 5 mg/kg/d) was 3.6 ± 5.9%. For the same molecule, the “% nonviable” value (Pregnant CD-1 mice; E17.5, 1 mg/kg/d) was 0.6 ± 2.1%, the “% resorbed” value (Pregnant CD-1 mice; E17.5, 1 mg/kg/d) was 2.6 ± 3.9% and the “% nonviable” value (Pregnant CD-1 mice; E17.5, 5 mg/kg/d) was 0.0 ± 0.0%. For the same molecule, the “% resorbed” value (Pregnant CD-1 mice; E17.5, 5 mg/kg/d) was 2.3 ± 3.4%, the “Liver ultrastructure (TEM)” value (maternal liver; 1 mg/kg/d) was “enlarged hepatocytes with increased cytoplasmic organelles consistent with mitochondria and peroxisomes, evenly dispersed glycogen, and small vacuoles in the centrilobular regions” and the “Liver ultrastructure (TEM)” value (maternal liver; 5 mg/kg/d) was “abnormal ultrastructure”.
